Data set [1] has as its target T1, C-C chemokine receptor type 10 (Homo sapiens, UniProt P46092).
T1 sequence (P46092 whole entry): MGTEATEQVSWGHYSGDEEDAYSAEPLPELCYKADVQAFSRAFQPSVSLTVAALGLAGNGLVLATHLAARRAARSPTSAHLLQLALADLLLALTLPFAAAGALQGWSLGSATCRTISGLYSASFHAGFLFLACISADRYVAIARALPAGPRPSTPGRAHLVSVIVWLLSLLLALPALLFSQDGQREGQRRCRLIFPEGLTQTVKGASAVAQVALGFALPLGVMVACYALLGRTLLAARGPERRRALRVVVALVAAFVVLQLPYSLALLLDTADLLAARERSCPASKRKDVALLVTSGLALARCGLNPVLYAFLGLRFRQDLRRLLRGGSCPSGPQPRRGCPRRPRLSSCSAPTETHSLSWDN
Briefly: Antagonist activity at human CCR10 expressed in CHOK1 cells coexpressing aequorin/Galphaq assessed as inhibition of human CCL27-dependent calcium flux in presence of coelenterazine H by chemiluminescence assay. It is filed as functional, cell-based, CHO-K1. For orientation: Calcium flux is commonly read through the fluorescence of an indicator in the cells.

The target of data set [2] is T2, C-C chemokine receptor type 10 (Mus musculus, UniProt Q9JL21).
T2 sequence (Q9JL21 whole entry): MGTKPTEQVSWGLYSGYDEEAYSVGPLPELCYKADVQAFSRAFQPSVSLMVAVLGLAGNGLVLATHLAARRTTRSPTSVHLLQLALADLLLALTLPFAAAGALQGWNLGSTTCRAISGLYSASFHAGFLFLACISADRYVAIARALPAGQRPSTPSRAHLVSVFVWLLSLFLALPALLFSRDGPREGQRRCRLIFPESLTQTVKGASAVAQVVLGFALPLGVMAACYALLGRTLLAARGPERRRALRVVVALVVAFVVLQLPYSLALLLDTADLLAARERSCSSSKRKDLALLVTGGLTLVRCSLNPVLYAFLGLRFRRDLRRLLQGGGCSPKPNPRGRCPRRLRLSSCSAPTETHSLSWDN
Briefly: Antagonist activity at mouse CCR10 expressed in CHOK1 cells coexpressing aequorin/Galphaq assessed as inhibition of CCL27-dependent calcium flux in presence of coelenterazine H by chemiluminescence assay. It is filed as functional, cell-based, CHO-K1.

Data set [3] can be described thus: Protein binding in Balb/C mouse plasma at 100 mg/kg, ip bid. The note with it: in vivo. Type of data set: ADME, organism-based.
A short description of data set [4]: Plasma concentration in Balb/C mouse at 100 mg/kg, ip bid measured after 1 hr. Type of data set: ADME, organism-based. The settings on record: in vivo.
Data set [5] can be described thus: Plasma concentration in Balb/C mouse at 30 mg/kg, ip bid measured after 1 hr. Type of data set: ADME, organism-based. The note with it: in vivo, 1 h.
Data set [6] deals with T1, C-C chemokine receptor type 10. Briefly: Antagonist activity at human CCR10 expressed in CHOK1 cells coexpressing aequorin/Galphaq assessed as inhibition of CCL27-dependent calcium flux in presence of coelenterazine H by FLIPR assay. Type of data set: functional, cell-based, CHO-K1.
Data set [7] has the same target. Briefly: Antagonist activity at human CCR10 expressed in CHOK1 cells coexpressing aequorin/Galphaq assessed as inhibition of human CCL28-dependent calcium flux by FLIPR assay. Type of data set: functional, cell-based, CHO-K1.
The target is the same in data set [8]. Briefly: Antagonist activity at human CCR10 expressed in CHOK1 cells coexpressing aequorin/Galphaq assessed as inhibition of human CCL28-dependent calcium flux by chemiluminescence assay. It is filed as functional, cell-based, CHO-K1.

Take `CC1CCN(C(=O)C(CCn2cccc2C#N)NS(=O)(=O)c2ccccc2)CC1` (configuration not stated): the IC50 in data set [1] (read-out: pIC50 (converted)) was 1260 nM; in data set [2] it was over 20000 nM.

In the case of `CC1CCN(C(=O)C(CCn2cccc2C#N)NS(=O)(=O)c2ccc3cc[nH]c3c2)CC1` (configuration not stated), the figures for the IC50 in data set [1] (read-out: pIC50 (converted)) and in data set [2] were 7.94 nM and 1000 nM, respectively.

Turning to `CC1CCCN(C(=O)C(CCn2cccc2C#N)NS(=O)(=O)c2cccc3[nH]ccc23)C1` (configuration not stated), in data set [1] (read-out: pIC50 (converted)), the IC50 is 63.1 nM.

For the molecule `CC1CCN(C(=O)C(CCn2cccc2C#N)NS(=O)(=O)c2c(N)cc(Cl)cc2Cl)CC1` (configuration not stated), the IC50 in data set [1] (read-out: pIC50 (converted)) is 39.8 nM.

As to `CC1CCN(C(=O)C(CCn2nccc2C#N)NS(=O)(=O)c2cc(Cl)c(N)c(Cl)c2)CC1` (configuration not stated), the IC50 in data set [1] (read-out: pIC50 (converted)) is 63.1 nM; in data set [2], 3160 nM.

In the case of `CC1CCN(C(=O)[C@H](CCn2ccnc2[N+](=O)[O-])NS(=O)(=O)c2cc(Cl)c(N)c(Cl)c2)CC1`, in data set [1] (read-out: pIC50 (converted)), the IC50 is over 20000 nM.

As for `CC1CCN(C(=O)[C@@H](CCc2ccccc2)NS(=O)(=O)c2cc(Cl)c(N)c(Cl)c2)CC1`, the IC50 is 631 nM in data set [1] (read-out: pIC50 (converted)) and 10000 nM in data set [2].

`CC1CCN(C(=O)C(CCn2cccn2)NS(=O)(=O)c2cc(Cl)c(N)c(Cl)c2)CC1` (configuration not stated): the IC50 in data set [1] (read-out: pIC50 (converted)) is 1580 nM.

As for `CC1CCN(C(=O)C(CCn2cncn2)NS(=O)(=O)c2cc(Cl)c(N)c(Cl)c2)CC1` (configuration not stated), the IC50 in data set [1] (read-out: pIC50 (converted)) is over 20000 nM.

Regarding `CC1CCN(C(=O)C(CCn2cccc2C#N)NS(=O)(=O)c2cccc3cc[nH]c23)CC1` (configuration not stated), the IC50 in data set [1] (read-out: pIC50 (converted)) was 251 nM; in data set [2] it was 7940 nM.

Take `CC1CCN(C(=O)C(CCn2ccnc2C#N)NS(=O)(=O)c2cc(Cl)c(N)c(Cl)c2)CC1` (configuration not stated): the IC50 in data set [1] (read-out: pIC50 (converted)) is 501 nM.

For `CC1CCCCN1C(=O)C(CCn1cccc1C#N)NS(=O)(=O)c1cccc2[nH]ccc12` (configuration not stated), the IC50 in data set [1] (read-out: pIC50 (converted)) is 20 nM.

Regarding `N#Cc1cccn1CCC(NS(=O)(=O)c1cc(Cl)c(N)c(Cl)c1)C(=O)N1CCC(C(F)(F)F)CC1` (configuration not stated), in data set [1] (read-out: pIC50 (converted)), the IC50 was 398 nM.

`CC1CCN(C(=O)[C@H](CCn2cccc2C#N)NS(=O)(=O)c2cc(Cl)c(N)c(Cl)c2)CC1`: the IC50 in data set [1] (read-out: pIC50 (converted)) was 15800 nM.

With `N#Cc1cccn1CCC(NS(=O)(=O)c1cccc2[nH]ccc12)C(=O)N1CCCCC1` (configuration not stated), in data set [1] (read-out: pIC50 (converted)), the IC50 was 10 nM.

In the case of `Cc1ccc(S(=O)(=O)NC(CCn2cccc2C#N)C(=O)N2CCC(C)CC2)c(C)c1N` (configuration not stated), the IC50 in data set [1] (read-out: pIC50 (converted)) was 100 nM.

For the molecule `CC1CCCN(C(=O)C(CCn2cccc2C#N)NS(=O)(=O)c2cc(Cl)c(N)c(Cl)c2)C1` (configuration not stated), the IC50 in data set [1] (read-out: pIC50 (converted)) was 631 nM.

For the molecule `CC1CCN(C(=O)C(CCc2ccccc2Cl)NS(=O)(=O)c2cc(Cl)c(N)c(Cl)c2)CC1` (configuration not stated), in data set [1] (read-out: pIC50 (converted)), the IC50 is 126 nM.

With `N#Cc1cccn1CCC(NS(=O)(=O)c1cc(Cl)c(N)c(Cl)c1)C(=O)N1CCCCC1` (configuration not stated), the IC50 in data set [1] (read-out: pIC50 (converted)) is 158 nM.

As for `CC1CCN(C(=O)C(CCn2cccc2C#N)NS(=O)(=O)c2cc(Cl)c(N)cc2Cl)CC1` (configuration not stated), the IC50 in data set [1] (read-out: pIC50 (converted)) is 63.1 nM.

As to `CC1CCN(C(=O)C(CCn2ccnn2)NS(=O)(=O)c2cc(Cl)c(N)c(Cl)c2)CC1` (configuration not stated), in data set [1] (read-out: pIC50 (converted)), the IC50 is over 20000 nM.

Take `N#Cc1cccn1CCC(NS(=O)(=O)c1cc(Cl)c(N)c(Cl)c1)C(=O)N1CCCC1` (configuration not stated): the IC50 in data set [1] (read-out: pIC50 (converted)) was over 10000 nM.

For the molecule `CC1CCN(C(=O)C(CCn2cccc2C#N)NS(=O)(=O)c2cccc3[nH]ccc23)CC1` (stereo in doubt; form 2), the figures for the IC50 in data set [1] (read-out: pIC50 (converted)) and in data set [2] were 3160 nM and 15800 nM, respectively. The PPB in data set [3] is 99%. Also, the figures for the concentration in data set [4] and in data set [5] were 18 µM and 3.2 µM, respectively.

Consider `CC1CCN(C(=O)C(CCn2ccnc2)NS(=O)(=O)c2cc(Cl)c(N)c(Cl)c2)CC1` (configuration not stated), for which, in data set [6], the IC50 was over 20000 nM.

With `CC1CCN(C(=O)[C@@H](CCn2ccnc2[N+](=O)[O-])NS(=O)(=O)c2cc(Cl)c(N)c(Cl)c2)CC1`, in data set [1] (read-out: pIC50 (converted)), the IC50 was 501 nM.

For `CN(C)C(=O)C(CCn1cccc1C#N)NS(=O)(=O)c1cccc2[nH]ccc12` (configuration not stated), the IC50 in data set [1] (read-out: pIC50 (converted)) is 3980 nM.

For `CC1CCN(C(=O)[C@H](CCc2ccccc2)NS(=O)(=O)c2cc(Cl)c(N)c(Cl)c2)CC1`, in data set [1] (read-out: pIC50 (converted)), the IC50 was over 10000 nM.

In the case of `N#Cc1cccn1CCC(NS(=O)(=O)c1cc(Cl)c(N)c(Cl)c1)C(=O)N1CCCCCC1` (configuration not stated), the IC50 in data set [1] (read-out: pIC50 (converted)) was 251 nM.

For the molecule `CC1CCN(C(=O)C(CCn2nccn2)NS(=O)(=O)c2cc(Cl)c(N)c(Cl)c2)CC1` (configuration not stated), in data set [1] (read-out: pIC50 (converted)), the IC50 was 3160 nM.

Turning to `N#Cc1cccn1CCC(NS(=O)(=O)c1cccc2[nH]ccc12)C(=O)N1CCC(O)CC1` (configuration not stated), the IC50 in data set [1] (read-out: pIC50 (converted)) was 126 nM.

As to `CC1CCN(C(=O)C(CCn2cccc2)NS(=O)(=O)c2cc(Cl)c(N)c(Cl)c2)CC1` (configuration not stated), the IC50 in data set [1] (read-out: pIC50 (converted)) was 1260 nM.

Take `CC1CCN(C(=O)C(CCn2cccc2C#N)NS(=O)(=O)c2cccc3ccccc23)CC1` (configuration not stated): the IC50 in data set [1] (read-out: pIC50 (converted)) is 50.1 nM.

As to `CC1CCN(C(=O)[C@@H](CCn2cccc2C#N)NS(=O)(=O)c2cc(Cl)c(N)c(Cl)c2)CC1`, the IC50 in data set [1] (read-out: pIC50 (converted)) is 7.94 nM.

As to `N#Cc1cccn1CCC(NS(=O)(=O)c1cccc2[nH]ccc12)C(=O)N1CCC(C(F)(F)F)CC1` (configuration not stated), the IC50 in data set [1] (read-out: pIC50 (converted)) is 10 nM.

In the case of `N#Cc1cccn1CCC(NS(=O)(=O)c1cccc2[nH]ccc12)C(=O)N1CCCCCC1` (configuration not stated), in data set [1] (read-out: pIC50 (converted)), the IC50 was 25.1 nM.

Turning to `CC1CCN(C(=O)C(CCn2ccnc2Cl)NS(=O)(=O)c2cc(Cl)c(N)c(Cl)c2)CC1` (configuration not stated), the IC50 in data set [1] (read-out: pIC50 (converted)) is 501 nM; in data set [2], over 20000 nM.

Turning to `CC1CCN(C(=O)C(CCn2cccc2C#N)NS(=O)(=O)c2ccc3[nH]ccc3c2)CC1` (configuration not stated), the IC50 in data set [1] (read-out: pIC50 (converted)) is 200 nM.

Regarding `CC1CCN(C(=O)C(CCn2ccnc2[N+](=O)[O-])NS(=O)(=O)c2cc(Cl)c(N)c(Cl)c2)CC1` (configuration not stated), the IC50 is 690 nM in data set [1] (read-out: IC50); over 20000 nM in data set [2]; 251 nM in data set [6]; 794 nM in data set [7]; 794 nM in data set [8].

Consider `CC1CCN(C(=O)C(CCn2cccc2C#N)NS(=O)(=O)c2cccc3c2ccn3C)CC1` (configuration not stated), for which the IC50 in data set [1] (read-out: pIC50 (converted)) is 126 nM; in data set [2] it was 6310 nM.

Consider `CC1CCCCN1C(=O)C(CCn1cccc1C#N)NS(=O)(=O)c1cc(Cl)c(N)c(Cl)c1` (configuration not stated), for which, in data set [1] (read-out: pIC50 (converted)), the IC50 was 794 nM.

Turning to `CC1CCN(C(=O)C(CCn2nccc2Cl)NS(=O)(=O)c2cc(Cl)c(N)c(Cl)c2)CC1` (configuration not stated), in data set [1] (read-out: pIC50 (converted)), the IC50 is 251 nM.

With `CN(C)C(=O)C(CCn1cccc1C#N)NS(=O)(=O)c1cc(Cl)c(N)c(Cl)c1` (configuration not stated), in data set [1] (read-out: pIC50 (converted)), the IC50 is over 10000 nM.

For the origin of these results see ChEMBL document CHEMBL3862010, “N-Arylsulfonyl-α-amino carboxamides are potent and selective inhibitors of the chemokine receptor CCR10 that show efficacy in the murine DNFB model of contact hypersensitivity” (Bioorg Med Chem Lett, 2016).
